Publication PMC4254627 (Bioorganic & medicinal chemistry letters, 2014)
Entries after “also recorded” stand apart in the source; their conditions may differ.

Assays:
[1] = Solubility / precipitation behaviour in pH 7.4 buffer; type: physicochemical
Stability = type: in vitro ADME, human; details: 50% HP vs pH 7.4 buffer

Structure (SMILES) | solubility in pH 7.4 buffer [1] | reduction of half-life in HP compared to pH 7.4 PBS buffer (Stability)
CC(C)[C@H](N)C(=O)O[C@@H]1CC[C@@]2(O)[C@H]3Cc4ccc(O)c5c4[C@@]2(CCN3CC2CC2)[C@H]1O5 [Prodrug 6b] | precipitate | –
CCC(C)[C@H](N)C(=O)O[C@@H]1CC[C@@]2(O)[C@H]3Cc4ccc(O)c5c4[C@@]2(CCN3CC2CC2)[C@H]1O5 (stereo partly drawn) [Prodrug 6d] | highly insoluble; also recorded: precipitate | –
NCCC(=O)O[C@@H]1CC[C@@]2(O)[C@H]3Cc4ccc(O)c5c4[C@@]2(CCN3CC2CC2)[C@H]1O5 [Prodrug 6e] | – | approximately 5.4 fold
